Tests used:
Rattus norvegicus [1] = assay: Antihyperglycemic activity in rat sucrose loaded model assessed as reduction of blood glucose level at 100 mg/kg, po; type: functional
[2] = target: T1, Tyrosine-protein phosphatase non-receptor type 1 (Homo sapiens) (UniProt P18031); assay: Inhibition of PTP1B assessed as p-nitrophenolate ions release at 100 uM
T1 sequence (whole entry): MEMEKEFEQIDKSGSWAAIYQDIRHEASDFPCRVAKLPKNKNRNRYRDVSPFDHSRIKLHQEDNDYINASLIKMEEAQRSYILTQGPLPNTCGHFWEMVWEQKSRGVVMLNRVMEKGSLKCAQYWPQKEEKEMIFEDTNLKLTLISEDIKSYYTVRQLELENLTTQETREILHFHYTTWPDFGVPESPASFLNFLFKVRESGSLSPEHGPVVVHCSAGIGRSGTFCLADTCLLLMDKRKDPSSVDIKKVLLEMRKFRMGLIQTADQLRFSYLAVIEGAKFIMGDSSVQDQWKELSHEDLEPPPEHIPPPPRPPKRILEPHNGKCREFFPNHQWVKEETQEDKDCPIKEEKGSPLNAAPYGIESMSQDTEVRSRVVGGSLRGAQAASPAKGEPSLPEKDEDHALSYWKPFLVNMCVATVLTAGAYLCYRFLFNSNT

Rattus norvegicus [3] = assay: Antihyperglycemic activity in rat streptozotocin-induced diabetic model assessed as reduction of blood glucose level at 100 mg/kg, po after 5 hrs; type: functional
Rattus norvegicus [4] = assay: Antihyperglycemic activity in rat streptozotocin-induced diabetic model assessed as reduction of blood glucose level at 100 mg/kg, po after 24 hrs; type: functional

| inhibition [2] [%] | SMILES | inhibition in vivo at 100 mg/kg (Rattus norvegicus [1]) [%] | inhibition in vivo at 100 mg/kg (Rattus norvegicus [3]) [%] | inhibition in vivo at 100 mg/kg (Rattus norvegicus [4]) [%] |
| --- | --- | --- | --- | --- |
| 7.63 | OC(COc1ccc(Cl)cc1)CN1CCN(C/C=C/c2ccccc2)CC1 (stereo unspecified) | 14.6 | – | – |
| 35.9 | O=[N+]([O-])c1ccc(N2CCN(CC(O)COc3ccc(Cl)cc3)CC2)cc1 (stereo unspecified) | 24.8 | 18.9 | 13.6 |
| 0.5 | N#Cc1ccc(OCC(O)CN2CCN(Cc3ccc4c(c3)OCO4)CC2)cc1 (stereo unspecified) | 14 | – | – |
| – | CN(C)C(=N)NC(=N)N [METFORMIN] | 42 | 28 | 29.8 |
| 9.21 | COc1ccc(N2CCN(CC(O)COc3ccc(Cl)cc3)CC2)cc1 (stereo unspecified) | 4.6 | – | – |
| 5.1 | N#Cc1ccc(OCC(O)CN2CCN(Cc3ccccc3)CC2)cc1 (stereo unspecified) | 39.6 | 25.3 | 14.7 |
| 31.6 | Cc1ccc(N2CCN(CC(O)COc3ccc(C#N)cc3)CC2C)cc1 (stereo unspecified) | 40.3 | 26.8 | 32 |
| 18.8 | N#Cc1ccc(OCC(O)CN2CCN(c3cccc(C(F)(F)F)c3)CC2)cc1 (stereo unspecified) | 49.7 | – | – |
| 24.6 | OC(COc1ccc(Cl)cc1)CN1CCN(c2ccc(Cl)c(Cl)c2)CC1 (stereo unspecified) | 3.52 | – | – |
| 1.5 | N#Cc1ccc(OCC(O)CN2CCN(c3cccc(Cl)c3)CC2)cc1 (stereo unspecified) | 16.5 | – | – |
| 4.6 | N#Cc1ccc(OCC(O)CN2CCN(c3ccccc3)CC2)cc1 (stereo unspecified) | 56.7 | – | – |
| 24 | O=[N+]([O-])c1ccc(N2CCN(CC(O)COc3ccc(F)cc3)CC2)cc1 (stereo unspecified) | 40.2 | 14.4 | 10.8 |
| 3.6 | N#Cc1ccc(OCC(O)CN2CCN(c3ccc(F)cc3)CC2)cc1 (stereo unspecified) | 38.6 | – | – |
| 2.4 | CN1CCN(CC(O)COc2ccc(Cl)cc2)CC1 (stereo unspecified) | 2.61 | – | – |
| 1.8 | N#Cc1ccc(OCC(O)CN2CCN(c3ccccn3)CC2)cc1 (stereo unspecified) | 39.6 | – | – |
| 2.6 | COc1ccccc1N1CCN(CC(O)COc2ccc(C#N)cc2)CC1 (stereo unspecified) | 33.5 | – | – |

From ChEMBL document CHEMBL1255537, “Design, synthesis and docking studies on phenoxy-3-piperazin-1-yl-propan-2-ol derivatives as protein tyrosine phosphatase 1B inhibitors” (2010)
